Results taken from ChEMBL document CHEMBL1157133, “Design, synthesis, and interaction study of quinazoline-2(1H)-thione derivatives as novel potential Bcl-xL inhibitors” (J Med Chem, 2010).

Experiments:
Bcl-2-like protein 1 = Bcl-2-like protein 1 (Homo sapiens, UniProt Q07817); experiment: Inhibition of human Bcl-XL
PC-3 = experiment: Cytotoxicity against human PC3 cells after 48 hrs by MTT assay; type: functional, cell-based; conditions: for EC50: PC-3, 48 h
OVCAR-3 = experiment: Cytotoxicity against human OVCAR-3 cells after 48 hrs by MTT assay; conditions: OVCAR-3, 48 h
[1] = Cytotoxicity against human Bel7404 cells after 48 hrs by MTT assay; conditions: BEL-7404, 48 h
A2780 = experiment: cells; conditions: Homo sapiens, A2780, 48 h
Description: Cytotoxicity against human A2780 cells after 48 hrs by MTT assay

K562 = experiment: cells; conditions: Homo sapiens, K562, 48 h
Description: Cytotoxicity against human K562 cells after 48 hrs by MTT assay

HepG2 = experiment: cells; conditions: Homo sapiens, HepG2, 48 h
Description: Cytotoxicity against human HepG2 cells after 48 hrs by MTT assay

Sequence of Bcl-2-like protein 1 (Q07817 whole entry): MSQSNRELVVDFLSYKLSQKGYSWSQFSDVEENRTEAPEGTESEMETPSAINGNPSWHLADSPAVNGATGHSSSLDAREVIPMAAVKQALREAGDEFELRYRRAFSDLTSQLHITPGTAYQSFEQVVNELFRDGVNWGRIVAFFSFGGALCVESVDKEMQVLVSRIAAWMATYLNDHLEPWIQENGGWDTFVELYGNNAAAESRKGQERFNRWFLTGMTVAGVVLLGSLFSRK

Row | SMILES | IC50 (Bcl-2-like protein 1) [µM] | EC50 (PC-3) [µM] | EC50 (OVCAR-3) [µM] | EC50 [1] [µM] | EC50 (A2780) [µM] | EC50 (K562) [µM] | EC50 (HepG2) [µM] | Activity (PC-3)
1 | COc1ccccc1C1C2=C(N=c3s/c(=C\c4cccc(OCC(=O)O)c4)c(=O)n31)c1cccc(OC(=O)c3ccccc3-c3ccccc3)c1CC2 (configuration not stated) | > 100 | 16.6 |  |  |  |  |  | 
2 | COc1ccccc1C1C2=C(N=c3s/c(=C\c4ccc(C(=O)O)cc4)c(=O)n31)c1ccccc1CC2 (configuration not stated) | 12.6 | 63.5 | 3.35 | 9.7 | 7.94 | 16.1 | 45 | 
3 | O=C(O)COc1cccc(/C=c2\sc3n(c2=O)C(c2cccc4ccccc24)C2=C(N=3)c3ccccc3CC2)c1 (configuration not stated) | 19.7 | 68 | 2.21 | 3.1 | 7.52 | 6.33 | 19.9 | 
4 | COc1ccccc1C1C2=C(N=c3s/c(=C\c4cccc(OCC(=O)O)c4)c(=O)n31)c1cccc(OCc3ccccc3)c1CC2 (configuration not stated) | > 100 | > 100 |  |  |  |  |  | 
5 | COc1ccc2c(c1)CCC1=C2N=c2s/c(=C\c3ccc(-c4cccc(C(=O)O)c4)o3)c(=O)n2C1c1cccc(F)c1 (configuration not stated) | > 100 | 35.2 |  |  |  |  |  | Dose-dependent effect
6 | COc1ccccc1C1C2=C(N=c3sc(=Cc4ccc(C=CC(=O)O)cc4)c(=O)n31)c1ccccc1CC2 (configuration not stated) | 12.7 | 17.3 | 3.29 | 11.2 | 7.85 | > 100 | 49.8 | Dose-dependent effect
7 | O=C(O)c1cccc(-c2ccc(/C=c3\sc4n(c3=O)C(c3cccc([N+](=O)[O-])c3)C3=C(N=4)c4ccccc4CC3)o2)c1 (configuration not stated) | 1.9 | 44.9 | 26.9 | 65.1 | 3.9 | 17.3 | 13.4 | Dose-dependent effect
8 | O=C(O)c1cccc(-c2ccc(/C=c3\sc4n(c3=O)C(c3ccccc3F)C3=C(N=4)c4ccccc4CC3)o2)c1 (configuration not stated) | 6.2 | 31.2 | 76.6 | > 500 | > 100 | > 100 | > 500 | 
9 | CC(C)C(C(=O)O)C1C(=O)/C(=C/c2ccc(Br)cc2)SC1=S (configuration not stated) | 6.2 |  |  |  |  |  |  | 
10 | COc1ccccc1C1C2=C(N=c3s/c(=C\c4ccc(-c5cccc(C(=O)O)c5)o4)c(=O)n31)c1ccccc1CC2 (configuration not stated) | 5.3 | 23.2 | 9.06 | 140 | 4.94 | 20.8 | 35.6 | 
11 | CCOC(=O)COc1cccc(/C=c2\sc3n(c2=O)C(c2ccccc2OC)C2=C(N=3)c3ccccc3CC2)c1 (configuration not stated) | 100 | 45 | 47.5 | 92.3 | 17.8 | > 100 | 32.3 | 
12 | O=C(O)c1cccc(-c2ccc(/C=c3\sc4n(c3=O)C(c3cccc5ccccc35)C3=C(N=4)c4ccccc4CC3)o2)c1 (configuration not stated) | 13.4 | 24.2 | 18.7 | 204 | 6.34 | 22.9 | > 500 | Dose-dependent effect
13 | O=C(O)COc1cccc(/C=c2\sc3n(c2=O)C(c2cccc(F)c2)C2=C(N=3)c3ccccc3CC2)c1 (configuration not stated) | 5.4 | > 100 | 2.8 | 50.9 | 16.9 | > 100 | 186 | Dose-dependent effect
14 | COc1ccc2c(c1)CCC1=C2N=c2s/c(=C\c3cccc(OCC(=O)O)c3)c(=O)n2C1c1ccccc1OC (configuration not stated) | > 100 | > 100 |  |  |  |  |  | 
15 | O=C(O)c1cccc(-c2ccc(/C=c3\sc4n(c3=O)C(c3ccc(F)cc3)C3=C(N=4)c4ccccc4CC3)o2)c1 (configuration not stated) | 5.2 | 13.4 | 5.85 | 25.9 | 7.38 | 26.3 | 35.1 | Dose-dependent effect
16 | COc1ccccc1C1C2=C(N=c3s/c(=C\c4ccc(OCC(=O)O)cc4)c(=O)n31)c1ccccc1CC2 (configuration not stated) | 36 | 11.1 | 2.85 | 6.1 | 6.13 | 5.62 | 15.3 | 
17 | COc1ccccc1C1C2=C(N=c3s/c(=C\c4ccc(-c5cccc(C(=O)O)c5)cc4)c(=O)n31)c1ccccc1CC2 (configuration not stated) | 26.7 | 67.1 | 7.17 | 4.5 | 2.23 | 9.41 | 7.2 | 
18 | O=C(O)c1cccc(-c2ccc(/C=c3\sc4n(c3=O)C(c3ccccc3)C3=C(N=4)c4ccccc4CC3)o2)c1 (configuration not stated) | 12.6 | > 100 | 18.9 | 71.7 | 7.46 | > 100 | 13.6 | 
19 | O=C(O)COc1cccc(/C=c2\sc3n(c2=O)C(c2ccco2)C2=C(N=3)c3ccccc3CC2)c1 (configuration not stated) | 40.4 | 10.2 | 8.5 | 14 | 15.3 | > 100 | 72.8 | Dose-dependent effect
20 | COc1ccccc1C1C=C(c2ccccc2)N=c2s/c(=C\c3cccc(OCC(=O)O)c3)c(=O)n21 (configuration not stated) | 72 | 65.2 | 22.2 | > 500 | 9.98 | > 100 | 175 | 
21 | O=C(O)c1cccc(-c2ccc(/C=c3\sc4n(c3=O)C(c3ccco3)C3=C(N=4)c4ccccc4CC3)o2)c1 (configuration not stated) | 35.9 | 79.5 | > 100 | > 500 | 15.8 | > 100 | > 500 | Dose-dependent effect
22 | COc1ccccc1C1C2=C(N=c3s/c(=C\c4ccccc4OCC(=O)O)c(=O)n31)c1ccccc1CC2 (configuration not stated) | 12.1 |  | 4.44 | 9.5 | 7.81 | 7.99 | 41.9 | Dose-dependent effect
23 | O=C(O)COc1cccc(/C=c2\sc3n(c2=O)C(c2cccc(F)c2)C2=C(N=3)/C(=C/c3cccc(F)c3)CCC2)c1 (configuration not stated) | > 100 | 12 | 3.27 | 4.3 | 6.8 | > 100 | 15.9 | 
24 | O=C(O)c1cccc(-c2ccc(/C=c3\sc4n(c3=O)C(c3cccc(F)c3)C3=C(N=4)/C(=C/c4cccc(F)c4)CCC3)o2)c1 (configuration not stated) | > 100 | 51.4 | 11.7 | 3.8 | 5.36 | > 100 | 8 | 
25 | O=C(O)COc1cccc(/C=c2\sc3n(c2=O)C(c2ccccc2)C2=C(N=3)c3ccccc3CC2)c1 (configuration not stated) | 10.3 | > 100 | 2.73 | 7.8 | 5.49 | 7.04 | 14.5 | 
